Values joined by “and” are separate entries in the source; they are usually repeats but may differ in a detail not shown here. Equal entries are not always repeated.
Assays:
IL-1β-treated HUVECs = experiment: 6-ketoPGF1a production from CLA-prelabeled HUVECs; assay type: cell-based, human; details: 25 μM; for HUVEC 6-ketoPGF1a formation fold-stimulation: overnight prelabeling, 15 minutes incubation, mean ± SD, 4 experiments; for range of fold increase in endogenous 6-ketoPGF1a formation: range over four separate experiments
Procedure: (§1) The following example illustrates the effect of CLA incorporation on 6-ketoPGF1a production from CLA-enriched HUVECs. Following the procedure described by Bordet (1990), IL-1β-treated HUVECs were first pre-enriched during an overnight incubation with human serum albumin (HSA) complexed with either 25 […] 9Z, 11Z-CLA/HSA, 25 μM 10E, 12Z-CLA/HSA or without added fatty acid (control). […] Insignificant differences in cell viabilities (as measured by LDH release) were observed between control cells and cells pretreated with HSA/CLA. After washing, the cells were incubated for 15 minutes, followed by removal of the supernatants, which were then assayed for 6-ketoPGF1a content by EIA. In four separate experiments, control HUVECs produced and released 42-1000 pg/ml of 6-ketoPGF1a.

[1] = test system: human umbilical vein endothelial cells (HUVECs); experiment: Inhibition of HUVEC 6-ketoPGF1a (PGI2) production by CLA in free fatty acid form; assay type: cell-based; details: CLA in the free fatty acid form
Procedure: As a consequence, the patent disclosed the use of CLAs to inhibit platelet thromboxane formation or platelet aggregation. […] All of these studies relate to the use of conjugated linoleic acids in the free fatty acid form.
as §1

Human platelets [2] = experiment: TXB2 formation by platelets treated 2 hours with CLA isomer/HSA; assay type: cell-based; details: 25 μM, 2 hours at 37° C.; for TXB2 formation Fold stimulation: mean ± SD, 4 experiments
Procedure: Human platelets were treated for 2 hours at 37° C. with either HSA complexed with 25 μM of the indicated CLA isomer or with HSA alone. After washing, the platelets were maintained at room temperature for 15 minutes. The supernatants were then removed, the lipid content extracted with chloroform/methanol and the residue, after TLC separation, assayed for TXB2 formation by EIA. The results shown in Table 2 were similar to those obtained with CLA-prelabeled HUVECs. […] Also shown in Table 2 is that the CLA content of the platelet lipids increased from 0.03% to 0.23% after platelet treatment with 9Z, 11Z-CLA/HSA and to 0.66% after 10E, 12Z-CLA/HSA.

Human platelets [3] = experiment: Release of endogenous AA from platelets prelabeled with CLA/HSA; assay type: cell-based
Procedure: (§2) The following example illustrates the effect of CLA incorporation into platelet lipids on stimulating the release of endogenous AA and increasing the formation of TXB2. Platelets were prelabeled with either HSA alone or with 25 μM 9Z, 11Z-CLA/HSA for 1 hour at 37° C. After washing, the platelets were incubated for 15 minutes at room temperature, followed by the removal of the supernatants. The supernatants were then assayed for free […] content and TXB2 production. […] When the results of these three experiments are averaged, platelets treated with 9Z, 11Z-CLA stimulated […] release 414±155% and enhanced TXB2 formation 180±30%.

Human platelets [4] = experiment: TXB2 production by platelets pretreated 1 hour with fatty acid/HSA; assay type: cell-based
Procedure: as §2
To compare the stimulatory effect of 9Z, 11Z-CLA on platelet TXB2 formation with other fatty acids, platelets were pretreated for 1 hour with HSA (control), or HSA complexed with either 9Z, 11Z-CLA, 9E,11E-CLA, linoleic acid (LA) or stearic acid (SA). The comparative effects of 25 μM 9Z, 11Z-CLA-, 9E, 11E-CLA-, LA- or SA-treated platelets on platelet TXB2 production is shown is FIG. 1. The values are the mean ±SD.

[5] = experiment 1, 25 μM, 1 hour at 37° C.
[6] = 25 μM, 1 hour pretreatment, versus HSA control, Example 2

Compound | HUVEC 6-ketoPGF1a formation fold-stimulation (IL-1β-treated HUVECs) [fold] | range of fold increase in endogenous 6-ketoPGF1a formation (IL-1β-treated HUVECs) | inhibition of HUVEC 6-ketoPGF1a / prostacyclin production [1] | TXB2 formation Fold stimulation (Human platelets [2]) | stimulation of platelet TXB2 production (FIG. 1) (Human platelets [4]; [6]) | further results
CCCCCC=CC=CCCCCCCCCC(=O)O [10E, 12Z-CLA, 10,12-octadecadienoic acid] | 3 | 1.5-7.5 fold | effective inhibitor | 1.3 ± 0.41 (4) fold | – | HUVEC 6-ketoPGF1a formation fold-stimulation (IL-1β-treated HUVECs; listed as 10E, 12Z): 3.5 ± 2.7 fold; HUVEC 6-ketoPGF1a formation fold-stimulation (IL-1β-treated HUVECs; listed as 10E, 12Z isomer): not quite half as effective; increase in formation and release of TXB2 (Human platelets [2]): 30%
CCCCCCC=CC=CCCCCCCCC(=O)O [9Z, 11Z-CLA, 9,11-octadecadienoic acid] | 8 | 1.9-23 fold | but not 9Z, 11Z-CLA isomer, was an effective inhibitor | 2.3 fold and 2.3 ± 1.0 (4) fold | 4 fold | HUVEC 6-ketoPGF1a formation fold-stimulation (IL-1β-treated HUVECs; listed as 9Z, 11Z): 8.1 ± 10 fold; activity at 25 µM (Human platelets [3]; Homo sapiens, Platelet, 1 hour, mean ± S.D. of three experiments, read-out: AA release, % of control, summary of experiments #1-3): 414 ± 155%; AA release (Human platelets [3]; [5]): 27 µg/mL; fold increase in TXB2 formation (Human platelets [4]; 25 μM prelabeling, relative to HSA/platelet controls): 2-4 fold and 2 fold; TXB2 Control (%) (Human platelets [4]; 25 μM, 1 hour at 37° C., single experiments No. 1-3, relative to HSA alone, listed as HSA + ZZ): 146% and 192% and 203%; activity at 25 µM (Human platelets [4]; Homo sapiens, Platelet, 25 μM, 1 hour, mean ± S.D. of three experiments, read-out: TXB2 formation, % of control, summary of experiments #1-3): 180 ± 30%; TXB2 formation (Human platelets [4]; [5]): 0.36 ng/mL
CCCCCCC=CC=CCCCCCCCC(=O)O [9E, 11E-CLA, 9,11-octadecadienoic acid] | – | – | – | – | – | inhibition at 25 µM (Human platelets [4]; Homo sapiens, Platelet, 25 μM, 1 hour pretreatment, versus HSA control, Example 2, read-out: inhibition of TXB2 formation (FIG. 1)): 37%
CCCCCCCCCCCCCCCCCC(=O)O [SA, stearic acid, reference compound] | – | – | – | – | did not show an appreciable effect | –
CCCCC/C=C\C/C=C\CCCCCCCC(=O)O [LA, linoleic acid] | – | – | – | – | did not show an appreciable effect | –

From patent publication US20040229950A1, “Method and composition with conjugated linoleic acid esters” (priority 2002, published 2004)
